Data set [1] is described as follows: Blood CBD and 7-COOH-CBD levels pre- and post-car ride (mass spectrometry). The class given is in vivo, Beagle dogs. As to the method: (§1) Anxiety behavioral data measures were recorded, as was serum cortisol levels (an anxiety/stress-related biomarker), heart rate and blood cannabidiol content. Subjects were dosed once during each arm, approximately four (4) hours prior to the car ride test. Blood samples for measurements of cortisol and CBD were taken on two occasions during each arm. The first was on day 1, a no treatment day. The second was within 10 minutes (±2 minutes) following the car ride. Both blood samples were taken as closely as possible to the same time of day. Heart rate was continuously measured during the car ride. There were seven days of washout between treatment days. For the sake of scheduling, the 16 dogs were tested in two cohorts, with eight (8) dogs tested per cohort day. The test schedule that followed is outlined in Table 2.
Blood was collected for health profiling on day −8 and 2 mL and was placed into each a potassium oxalate/sodium fluoride, SST and K2EDTA tube. Whole blood collections for the purpose of cortisol and cannabidiol analysis were taken on eight occasions. Four (4) ml blood samples were collected from a suitable vein according to standard operating procedure for baseline 1 day prior to the car and 10 minutes (±2 minutes) after each car ride for cortisol and cannabidiol analysis. Prior to the baseline sample, subjects were placed in a quiet metabolic cage for 30 minutes (±2 minutes) for a more accurate reading of cortisol at rest. Two (2) ml blood were placed into a 2 ml SST tube and allowed to set until clotted. Serum was separated by centrifugation (2800-3200 rpm for 10 minutes at room temperature) and removed into a new serum blood tube. One aliquot of serum (0.5 ml) was placed into a cryovial and stored at approximately −80° C. for future analysis as necessary. […] Samples were analysed by mass spectrometry for the presence of cannabidiols and in particular CBD.
Post-car ride CBD levels were analyzed as a function of Dose using non-parametric analysis of variance.
Pre-car ride CBD levels were analyzed as a function of previous Dose using non-parametric analysis of variance. […]

For data set [2], the system named is thunderstorm noise-induced model of anxiety. Kind of data set: Thunderstorm noise-induced model of anxiety after chronic (28-day) CBD administration. It counts as in vivo, dogs. The method, then: The present study was conducted to evaluate the potential antianxiety effects of CBD after chronic administration using a thunderstorm model of anxiety. A placebo-controlled 28-day CBD dosing, behavioral and safety study was conducted in which the anti-anxiety behavioral effects of chronic CBD were evaluated after 7 and 21 days of CBD administration. Anxiety-related behavioral assessments were conducted using a thunderstorm noise-induced model of anxiety. Four different doses of CBD isolate (1, 2, 4 and 12 mg CBD/kg dog's body weight) were administered orally, as a liquid, once a day to fasted dogs. The primary anti-anxiety measures included blood cortisol levels, heart rate, distance traveled, head movements, global anxiety and scanning behavior.

Data set [3] concerns car ride model of fear and anxiety. Kind of data set: Car-ride model of fear and anxiety in dogs (10-minute car ride). The conditions noted are these: for Cortisol response to car ride: differed significantly from baseline. The class given is in vivo, Beagle dogs. As to the method: A Car-Ride Model for fear and anxiety was used to assess the anxiolytic properties of a cannabidiol formulation on dog subjects. One of the objectives of this study was to determine the anxiolytic effectiveness of orally dosed CBD-enriched cannabidiol formulation at three dose levels, namely at: 4 mg/kg CBD; 12 mg/kg CBD; and 25 mg/kg CBD as compared to a placebo control in a car ride model of fear and anxiety.
Enrollment into the study was based on the subject's baseline activity response to a car ride. Twenty-four (24) Beagle Dogs were screened for car-ride induced elevation of blood cortisol. The initial screening occurred over a 10-day period. Sixteen of the 24 dogs were selected to be used in the subsequent efficacy trial. The schedule of operations for the baseline screen is outlined in Table 1.
The subsequent dose-finding efficacy trial was a blinded pre-clinical trial with sixteen (16) dogs. Dogs were allocated to four treatment groups each containing four (4) dogs based on the baseline response to the car-ride model. In the car-ride model, the dogs were placed in a travel crate secured in the back of a transport vehicle. Anxiety was assessed by monitoring behavior and heart rate during the car ride, and by blood cortisol measures after the car ride. A Williams design was used in which 3 dose levels of the drug and a placebo control were evaluated, with every dog being tested on every condition. Thus, the study had four cycles: four (4) groups of four (4) dogs each, with two (2) males and two (2) females per group, were given four (4) cycles of either one of three increasing doses of a cannabidiol-enriched liquid formulation or the vehicle (medium chain triglyceride solution without cannabidiol), each in a volume of 4 mL. Actives or placebo were administered on the fourth day of each cycle, four (4) hours (±15 minutes) before exposure to a 10-minute car ride in a controlled setting. Each dosing cycle was seven (7) days, so there were seven (7) days between doses.
as §1
Treatment conditions as follows: High Dose: 25 mg/kg CBD; Medium Dose: 12 mg/kg CBD; Low Dose: 4 mg/kg CBD; Placebo control: MCT (Medium Chain Triglyceride) solution. The animals were handled and cared for as similarly as possible throughout the study. The study used a Williams design. The experimental unit were one individual dog and the number of dogs per treatment sequence was four (4), each containing two (2) males and two (2) females.
The study was a blinded pre-clinical trial carried out in a standardized environment. Sixteen (16) dogs (8 males and 8 females) were included in the study. A Williams design, in which all test subjects receive all three dosages and one placebo were used. Four (4) groups of four (4) dogs each, with two (2) males and two (2) females per group, will be given four (4) cycles of either one of three increasing doses of a Cannabidiol-enriched liquid formulation or the vehicle (medium chain triglyceride solution without cannabidiol), each in a volume of 4 mL. Actives or placebo were administered on the fourth day of each cycle, four (4) hours (±15 minutes) before exposure to a 10-minute car ride. […]

Data set [4] deals with noise-induced model of fear and anxiety. Kind of data set: Noise-induced (thunderstorm) model of fear and anxiety in dogs, single dose. The class given is in vivo, Beagle dogs. As to the method:
A Noise-Induced Model for fear and anxiety was used to assess the anxiolytic properties of a cannabidiol formulation on dog subjects. An objective of this study is to determine the anxiolytic effectiveness of an orally dosed CBD enriched cannabinoid formulation at three dose levels (25 mg/kg, 12 mg/kg, and 4 mg/kg) as compared to a placebo control in a noise-induced model of fear and anxiety.
A preliminary health screen including veterinary examinations and CBC/clinical chemistry blood work analysis was first used to select thirty-two (32) Beagle dogs for the Baseline Screening phase of this study. […] A four-arm Williams design was used, with four treatment groups of 4 animals per group. Subjects were allocated to the treatment groups (n=4) balanced for sex, serum cortisol, and behavioural (activity) response. On Days 4, 11, 18, and 25 (n=16), dogs were tested on the thunderstorm procedure after administration of one of three dose levels of test article or placebo. Anxiety was assessed by both live monitoring of specific behaviours and through post-trial monitoring of recorded video files, by continuous recording of heart rate during the test, and by analyzing serum cortisol levels after the test. Subjects were dosed once during each arm of the study, approximately 4 hours prior to the thunderstorm test. Blood was taken twice during each arm of the study including baseline phase; once for the purpose of determining resting cortisol levels, collected two days before thunderstorm procedures, and once for the purpose of determining post-thunderstorm cortisol levels as well as blood levels CBD and 7-COOH-CBD, collected 5 minutes (±2 minutes) following the test. Both blood collections were taken at about same time of day. There was a 6-day washout period between treatment days for all subjects.
On the day of testing, each group received a single dose of their assigned treatment according to Table 7 followed by a 6-day washout period prior to the next assessment Animals were dosed 4 hours (±10 minutes) prior to each thunderstorm assessment, at the same time of day on each dosing day. Subjects received either placebo (MCT oil) or CBD extract diluted to the correct concentration of either 4, 12 or 25 mg/kg with appropriate volume of MCT oil to a final volume of 4 mL for each dose. The test article was administered orally by syringe with attention to complete delivery and retention of the intended dose according to standard operating procedures. In the event that a subject vomited or regurgitated within the first 30 minutes of administration, the product was re-administered and time of re-dose was recorded. […]
The thunderstorm test was performed on Study Day −5, 4, 11, 18, and 25; this took place in the open field arena. During the 9-minute task, the first three minutes was designated as the pre-thunder interval, during which the dogs were allowed to freely explore the room in the absence of any external stimuli. During minutes 4-6 (thunder interval) a recorded thunderstorm track was played over a stereo system at approximately 105 dB. Animal behaviour was audio and video recorded for a total of 9 minutes and the following parameters assessed:
1. Distance travelled (m): the distance the animal moves within the room will be tracked and recorded in meters.
2. […] All other behaviours were considered “active” behaviours.
No stimuli were provided over the last three minutes (minutes 7-9). All behavioural parameters were measured as described for the open field test. Video files of each session were recorded to DVD and archived with the study files. […]

Where [5] appears, read: Phase 1, 12 mg/kg CBD oral, n=4 dogs.
Setting [6] is: Phase 1, 25 mg/kg CBD oral, n=4 dogs.
Setting [7] is: all four phases combined, 25 mg/kg CBD oral, n=16 dogs, p=0.05.

Consider `C=C(C)[C@@H]1CCC(C(=O)O)=C[C@H]1c1c(O)cc(CCCCC)cc1O` [7-COOH-CBD], for which the “7-COOH-CBD levels across the 4 dose levels” value in data set [1] (post-car ride, repeated measures ANOVA) is given as “highly significant effect of dose”.
For `C=C(C)[C@@H]1CCC(C)=C[C@H]1c1c(O)cc(CCCCC)cc1O` [CBD, cannabidiol], in data set [2] (1 and 2 mg CBD/kg oral once a day), the “Cortisol, day 21 vs day 7” value was “greater decrease in cortisol on day 21 than day 7”. Also, the Visual scanning entry in data set [2] (Day 7, 1 mg/kg) is listed as “most reduced”; in data set [2] (day 21, 1 and 2 mg/kg) it was “most reduced”. Besides, the “Global Anxiety Scores during thunder-noise” value in data set [2] (after 7 and 21 days of treatment, all groups) is given as “decreased”. The Thunderstorm-induced body movements entry in data set [2] (chronic CBD administration) is “generally decreased”. Further, in data set [2] (chronic CBD treatment 1, 2, 4, 12 mg/kg oral once a day), the Heart rate entry is recorded as “not affected”. Further, the “Global Anxiety Scores during thunder-noise, group with greatest decrease” value in data set [2] (day 7, 2 mg/kg) is given as “greatest decreases”. The Head movements result was “decreased by day 7” in data set [2] (day 7, two lowest CBD treatment groups (1 and 2 mg/kg)); “decline in head movements” in data set [2] (day 21, all treatment groups). Further, in data set [2] (day 21, 1, 2 and 4 mg/kg), the “Global Anxiety Scores during thunder-noise, groups with greatest decrease” value is reported as “greatest decreases”. In addition, the Cortisol result in data set [2] (lowest 3 doses (1, 2, 4 mg/kg) oral once a day, days 7 and 21) was “decline in cortisol”. The “Anti-anxiety effects (stress biomarker, body movements, visual scanning, global anxiety scores)” value in data set [2] (three lower CBD doses (1, 2, 4 mg/kg) oral once a day) is recorded as “observable anti-anxiety effects”. For the same compound, in data set [1] (7 days after previous dose, repeated measures ANOVA, 0.02 level), the “Pre-car ride CBD levels as a function of previous dose” value is on record as “Previous dose effect was significant”. Also, the “Post-car ride CBD levels as a function of dose” value in data set [1] (oral 4, 12, 25 mg/kg CBD or placebo 4 h before car ride, non-parametric analysis of variance, p=0.0000) is “highly significant dose effect”. Besides, the “Dogs that lay down during the 10-minute car ride” value in data set [3] (Phase 1, 2 of 4 dogs at each of 4, 12, or 25 mg/kg CBD oral, placebo 0 of 4) turned out to be 50%. In data set [3] (Phase 1, CBD 4, 12, 25 mg/kg combined, placebo none of 4), the “Number of dogs across the CBD treatments who lay down during the car ride” value was 6 of 12 dogs. The “Mean heart rate, effect of treatment” value in data set [3] (baseline, placebo, 4, 12 and 25 mg/kg oral, pre-test, min 1-5, min 5-10 of car ride, repeated measures ANOVA) is reported as “no other significant main effects or interactions”. In data set [3] (female dogs, CBD 4, 12, 25 mg/kg oral 4 h before car ride (FIG. 11)), the “Post-car ride cortisol levels in female dogs” value is “decrease in cortisol levels”. Moreover, the “Cortisol response to car ride” value in data set [3] (high dose 25 mg/kg CBD oral) is “more effective in reducing the cortisol response than the placebo and low dose treatments”; in data set [3] (medium dose 12 mg/kg CBD oral) it was “more effective in reducing the cortisol response than the placebo and low dose treatments”. Moreover, the “Distance travelled post-thunder (minutes 7-9), placebo vs CBD” value in data set [4] (25 mg/kg oral 4 h before test, p=0.0445, LMM with treatment and order) is “significantly larger with placebo than 25 mg/kg”. In addition, the “Inactivity frequency post-thunder, placebo vs CBD” value in data set [4] (25 mg/kg oral, p=0.0245, LMM with treatment and order) is recorded as “significantly smaller with placebo than 25 mg/kg”. Also, the “Activity during minutes 1-3 of conditioned anxiety testing” value in data set [4] (CBD 4, 12, 25 mg/kg vs placebo) was “no significant differences”. For the same compound, the “Distance travelled during the 3-minute post-thunder interval (mean±SD)” value in data set [4] (setting [5]) came out at 3.9±3.9 m; in data set [4] (setting [6]) it was 5.5±4.0 m; in data set [4] (setting [7]), 3.5±3.9 m. For the same compound, the figures for the “Reduction of distance travelled during the 3-minute post-thunder interval vs placebo” value in data set [4] (setting [5]), in data set [4] (setting [6]) and in data set [4] (setting [7]) were 72%, 61% and 65%, respectively. In data set [4] (setting [6]), the “Distance travelled during the 3-minute thunderstorm noise (mean±SD)” value is reported as 17.0±8.1 m. Also, the “Reduction of distance travelled during the 3-minute thunderstorm noise vs placebo” value in data set [4] (setting [6]) is 29%. Further, in data set [4] (repeated measures ANOVA, pre-thunder, thunder, post-thunder, p value for dose effect 0.762), the “Inactivity, effect of dose” value was “no other significant main effects or interactions”.

Source of the values: patent publication US11752127B2, “Methods and compositions for treatment of anxiety in animals” (CANOPY GROWTH CORPORATION, priority 2019, dated 2023).
